Among the test systems are HOP-18; DMS-114; DLD-1; XF498; M19-MEL; SNB-78; RXF 631; DMS-273; KM-20L2.
Common to all, as to test: growth of human tumour cells (NCI), 48 h

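Growth conditions: 96-well plates. Treatment: test compound, 48 hours, 5 concentrations. Analysis: linear interpolation between bracketing concentrations; unreached endpoints set to highest concentration. GI50 is the concentration that inhibits growth by half.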 The source made the active and inactive calls. Rule as the data show it: active = GI50 up to about 1.1 µM and inactive = higher.

As to `CCOP(=O)(OCC)/C(C#N)=C/c1ccco1`, the GI50 in the experiment with HOP-18, in the experiment with DMS-114, with DLD-1, with XF498, with M19-MEL and in the experiment on SNB-78 was > 100 µM (inactive) throughout. Besides, in the experiment with RXF 631, the GI50 was > 100 µM (inactive).
In the case of `Cn1cc2c(n1)c(N/N=C/c1ccccc1)nn1nnnc21`, the GI50 in the experiment with HOP-18, in the experiment on DMS-114, in the experiment with DMS-273, in the experiment on KM-20L2, in the experiment on DLD-1 and with XF498 was > 100 µM (inactive) throughout. In addition, the GI50 in the experiment on M19-MEL, with SNB-78 and with RXF 631 was > 100 µM (inactive) in each case.
Consider `N=C(N)N/N=C(/c1nc2ccc([N+](=O)[O-])cc2[nH]c1=O)C(O)c1ccc([N+](=O)[O-])cc1` (centres undefined), for which the GI50 is 8.28 µM (inactive) with DMS-114; 55.7 µM (inactive) in the experiment on DMS-273; 18 µM (inactive) in the experiment with KM-20L2; 87.3 µM (inactive) with DLD-1; 40 µM (inactive) with XF498; > 100 µM (inactive) in the experiment on M19-MEL. In addition, the GI50 with SNB-78 and with RXF 631 was > 100 µM (inactive) in each case.
Take `C/C(=N/NC(N)=S)C(CN1CCOCC1)C(C1=C(O)c2ccccc2OC1)c1ccccc1` (centres undefined): the GI50 in the experiment with HOP-18, in the experiment with KM-20L2, in the experiment on DLD-1, in the experiment on XF498, in the experiment on M19-MEL and in the experiment on SNB-78 was > 100 µM (inactive) throughout.
Regarding `COc1ccc(NCC#N)cc1`, the GI50 in the experiment on HOP-18, in the experiment on DMS-114, in the experiment on DMS-273, in the experiment with KM-20L2, in the experiment on DLD-1 and with XF498 was > 100 µM (inactive) each time. Moreover, the GI50 in the experiment on M19-MEL, in the experiment with SNB-78 and in the experiment with RXF 631 was > 100 µM (inactive) each time.
With `O=[N+]([O-])c1ccc(Cc2nc3ccccc3s2)cc1`, the GI50 in the experiment with HOP-18 was > 100 µM (inactive); in the experiment on DMS-114, 39.5 µM (inactive); in the experiment with DMS-273, 82.4 µM (inactive); in the experiment with KM-20L2 it was > 100 µM (inactive); with DLD-1, 41.6 µM (inactive); with XF498, > 100 µM (inactive). Moreover, the figures for the GI50 in the experiment on M19-MEL and with SNB-78 were 71.3 µM (inactive) and > 100 µM (inactive), respectively.
As for `COC(=O)NN=C1C(C)(C)C(=O)C1(C)C`, the GI50 in the experiment on DMS-273, in the experiment on KM-20L2, in the experiment on DLD-1, in the experiment with XF498, in the experiment with SNB-78 and with RXF 631 was > 100 µM (inactive) each time.
In the case of `O=C1C2Nc3ccccc3SC2C(=O)N1c1ccccc1C(F)(F)F` (centres undefined), the GI50 with HOP-18 is 26.4 µM (inactive); in the experiment on DMS-114 it was 40.7 µM (inactive); in the experiment with DLD-1, 27.3 µM (inactive); in the experiment on XF498 it was 19.6 µM (inactive); with M19-MEL it was 46.9 µM (inactive); in the experiment on SNB-78, 15.2 µM (inactive).
As to `CC1(C)OC(=O)C(C#N)=C1/C=C/c1coc2ccc(Cl)cc2c1=O`, the GI50 with DMS-114 was 34.8 µM (inactive); with DMS-273 it was 35.1 µM (inactive); in the experiment with KM-20L2, 42.2 µM (inactive); in the experiment on DLD-1, 23.1 µM (inactive); in the experiment on M19-MEL it was 41.2 µM (inactive); in the experiment with SNB-78 it was 33.8 µM (inactive). In addition, the GI50 in the experiment with RXF 631 is 38.8 µM (inactive).
As to `CCN(CC)CCC(=O)O[C@H]1CC[C@H](CC(C)[C@H]2CC(=O)C(C)C=C(C)[C@H](OC(=O)CCN(CC)CC)C(OC)C(=O)[C@@H](C)CC(C)/C=C/C=C/C=C(C)C(OC)CC3CC[C@H](C)[C@](O)(O3)C(=O)C(=O)N3CCCCC3C(=O)O2)CC1OC` (some centres undefined), the GI50 is 0.361 µM (active) in the experiment with DMS-273, 1.6 µM (inactive) in the experiment with KM-20L2, < 0.01 µM (active) in the experiment with SNB-78 and 0.406 µM (active) in the experiment with RXF 631.
As for `O=[N+]([O-])c1ccc(-c2ccc(-c3csc(Nc4ccccc4)n3)o2)cc1`, the GI50 is 15.8 µM (inactive) with HOP-18; 25.7 µM (inactive) in the experiment with DMS-114; 23 µM (inactive) in the experiment on DMS-273; 21 µM (inactive) in the experiment on KM-20L2; 23.3 µM (inactive) in the experiment with DLD-1; 18.4 µM (inactive) in the experiment with XF498. Besides, the results for the GI50 in the experiment on M19-MEL and in the experiment with SNB-78 were 29.9 µM (inactive) and 8.17 µM (inactive), respectively.
With `CC(=O)OC1[C@H]2c3cc4c(cc3CN3CCC(C[C@@H]1OC(C)=O)C23)OCO4` (some centres undefined), the GI50 in the experiment on DMS-114, in the experiment with DMS-273, in the experiment with KM-20L2, in the experiment on DLD-1, in the experiment with M19-MEL and in the experiment on SNB-78 was > 75 µM (inactive) each time.
With `O/N=N/c1cnccn1`, the GI50 in the experiment with HOP-18 was > 1250 µM (inactive); in the experiment on DMS-114, 929 µM (inactive); with DMS-273 it was > 1250 µM (inactive); in the experiment with KM-20L2, > 1250 µM (inactive); with DLD-1, > 1250 µM (inactive); with M19-MEL, > 1250 µM (inactive). In addition, in the experiment with SNB-78, the GI50 was > 918 µM (inactive).
As to `O=C(/C=N/c1ccccc1C(=O)[O-])c1cccs1.O=C(/C=N/c1ccccc1C(=O)[O-])c1cccs1.[Zn+2]`, the GI50 is > 100 µM (inactive) in the experiment on HOP-18, > 100 µM (inactive) with DMS-273, > 100 µM (inactive) in the experiment with KM-20L2 and 39.9 µM (inactive) in the experiment on DLD-1.
In the case of `COc1cccc(NC(=O)CC(=O)N2NC(c3ccccc3)C(/N=N/c3cccc(C(=O)O)c3)C2=O)c1` (centres undefined), the GI50 with HOP-18 is < 0.01 µM (active); in the experiment on DMS-114, > 100 µM (inactive); in the experiment with KM-20L2, > 100 µM (inactive); in the experiment with DLD-1 it was > 100 µM (inactive); in the experiment with XF498, > 100 µM (inactive); in the experiment with M19-MEL it was > 100 µM (inactive). Besides, in the experiment with SNB-78, the GI50 is > 100 µM (inactive).
Take `COC(=O)/C=C1\CCC2[C@@H](C(=O)CC3[C@]2(C)CCC[C@@]3(C)C(=O)OC)C1C` (some centres undefined): the GI50 in the experiment with HOP-18 was 29.4 µM (inactive); in the experiment with DMS-114 it was 16.1 µM (inactive); in the experiment with DMS-273 it was 22 µM (inactive); in the experiment on KM-20L2, 29.3 µM (inactive); with DLD-1 it was 29.2 µM (inactive); in the experiment on XF498 it was 13.7 µM (inactive). Besides, the GI50 was 19.2 µM (inactive) in the experiment with M19-MEL, 29.2 µM (inactive) in the experiment with SNB-78 and 25.4 µM (inactive) with RXF 631.
In the case of `Fc1cccc(F)c1C1SCc2nc3ccccc3n21` (centres undefined) [THIAZOLOBENZIMIDAZOLE], the GI50 is 53.6 µM (inactive) with HOP-18; 50.2 µM (inactive) in the experiment with DMS-273; > 100 µM (inactive) in the experiment with KM-20L2; > 100 µM (inactive) in the experiment on DLD-1; 52 µM (inactive) in the experiment on XF498; 44.9 µM (inactive) with M19-MEL. Moreover, the GI50 in the experiment with SNB-78 was 63.5 µM (inactive).
For the compound `O=c1c2ccccc2nc(-c2ccccc2)n1NC(=S)Nc1cccc(Cl)c1`, the GI50 was > 100 µM (inactive) in the experiment on HOP-18; 67.3 µM (inactive) in the experiment on DMS-114; 66.4 µM (inactive) with DMS-273; > 100 µM (inactive) in the experiment with DLD-1; > 100 µM (inactive) in the experiment with M19-MEL.
Take `O=C(CSc1nnc(Cc2ccccc2)o1)Nc1ccc([N+](=O)[O-])cc1`: the GI50 was 22.4 µM (inactive) in the experiment with DMS-114; > 100 µM (inactive) in the experiment on DMS-273; > 100 µM (inactive) with KM-20L2; > 100 µM (inactive) in the experiment on DLD-1; > 100 µM (inactive) in the experiment with M19-MEL; > 100 µM (inactive) with SNB-78.

For the origin of these results see ChEMBL document CHEMBL1201862, “PubChem BioAssay data set” (2004).
